Where “and” joins values, the source holds several entries; their conditions need not be identical. Identical values can stand only once.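 The compound was tested at five concentrations on cells cultured in 96-well plates, with a 48-hour exposure period. The concentration for 50% growth inhibition is given as GI50. The concentration for full growth arrest is given as TGI.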
Key:
Assay in all cases: growth of human tumour cells (NCI), 48 h
SNB-19 CNS = system: SNB-19 CNS
NCI/ADR-RES ovarian = system: NCI/ADR-RES ovarian
SK-MEL-5 melanoma = system: SK-MEL-5 melanoma
SF-295 CNS = system: SF-295 CNS
CCRF-CEM leukemia = system: CCRF-CEM leukemia
SN12C renal = system: SN12C renal
CAKI-1 renal = system: CAKI-1 renal
NCI-H226 lung = system: NCI-H226 lung
MCF7 breast = system: MCF7 breast
T-47D breast = system: T-47D breast

| SMILES | GI50 (SNB-19 CNS) | TGI (SNB-19 CNS) | GI50 (NCI/ADR-RES ovarian) | TGI (NCI/ADR-RES ovarian) | GI50 (SK-MEL-5 melanoma) | TGI (SK-MEL-5 melanoma) | GI50 (SF-295 CNS) | TGI (SF-295 CNS) | GI50 (CCRF-CEM leukemia) | TGI (CCRF-CEM leukemia) | GI50 (SN12C renal) | TGI (SN12C renal) | GI50 (CAKI-1 renal) | TGI (CAKI-1 renal) | GI50 (NCI-H226 lung) [µM] | TGI (NCI-H226 lung) [µM] | GI50 (MCF7 breast) | TGI (MCF7 breast) | GI50 (T-47D breast) | TGI (T-47D breast) |
| --- | --- | --- | --- | --- | --- | --- | --- | --- | --- | --- | --- | --- | --- | --- | --- | --- | --- | --- | --- | --- |
| CC(=O)Nc1ccc(CC[C@H]2CCC/C=C/[C@@H]3C[C@H](O)C[C@H]3[C@H](O)/C=C/C(=O)O2)cc1 | 0.231 µM | > 100 µM | 0.819 µM | > 100 µM | 0.0188 µM | 0.0348 µM | 0.201 µM | > 100 µM | 0.32 µM | > 100 µM | 0.333 µM | > 100 µM | 0.361 µM | > 21.2 µM | 0.0667 | 0.295 | 0.157 µM | 0.338 µM | 0.29 µM | – |
| CCOc1cc(/C=C/C(=O)CC(=O)/C=C/c2ccc(OC(=O)CNc3nc4ccc(OC)cc4s3)c(OCC)c2)ccc1OC(=O)CNc1nc2ccc(OC)cc2s1 | 6.02 µM | 19.4 µM | 20 µM | > 100 µM | 5.25 µM | 17.2 µM | 15.4 µM | 33.2 µM | 1.96 µM | 5.46 µM | 11.6 µM | 65.5 µM | 11.4 µM | 53.3 µM | 12.9 | 34.1 | 2.54 µM | 10.8 µM | 10.6 µM | 43.1 µM |
| O=C(Nc1ccc(Nc2ccc3c(c2)C(=O)c2ccccc2C3=O)c2c1C(=O)c1ccccc1C2=O)c1ccccc1 | – | > 100 µM | – | > 100 µM | – | > 100 µM | – | > 100 µM | – | > 72.8 µM | – | > 100 µM | – | > 100 µM | – | > 100 | – | > 100 µM | – | > 100 µM |
| Cc1cc(NC(=O)NCCCOc2ccc(N3C(N)=NC(N)=NC3(C)C)cc2Cl)ccc1S(=O)(=O)F | 0.92 µM | > 54.7 µM | > 100 µM | > 100 µM | 0.492 µM | 11.1 µM | 3.26 µM | > 100 µM | 0.561 µM | > 63.5 µM | 0.558 µM | > 100 µM | > 63.7 µM | > 100 µM | 12.6 | > 100 | 0.614 µM | 22.5 µM | 4.82 µM | 61.9 µM |
| COc1ccc(CC(C)NCC(O)c2ccc(O)c(NC=O)c2)cc1 (stereo not drawn) | – | > 100 µM | – | > 100 µM | – | > 100 µM | – | > 100 µM | – | > 100 µM | – | > 100 µM | – | > 100 µM | – | > 100 | – | > 100 µM | – | > 100 µM |
| COc1ccc(-c2nn3ncccc3c2-c2ccnc(Nc3ccc(F)c(F)c3)n2)cc1 | 14.3 µM | > 25 µM | 8.27 µM | > 25 µM | 8.08 µM | > 25 µM | 4.26 µM | > 25 µM | 11.2 µM | > 25 µM | 10.4 µM | > 25 µM | 7.65 µM | > 23.4 µM | 13.9 | > 25 | 10.6 µM | > 25 µM | 6.42 µM | > 25 µM |
| O=c1oc2ccccc2cc1P(=O)(O)O | – | > 100 µM | – | > 100 µM | – | > 100 µM | – | > 100 µM | – | > 100 µM | – | > 100 µM | – | > 100 µM | – | > 100 | – | > 100 µM | – | > 100 µM |
| N#Cc1nc2cc(Cl)c(Cl)cc2nc1-c1ccc(Cl)cc1 | > 43.4 µM | > 60.6 µM | > 42.2 µM | > 83.4 µM | 44.3 µM | > 100 µM | 19.6 µM | 43.1 µM | 8.61 µM | 25.7 µM | 28.5 µM | > 78.6 µM | 34 µM | > 66.8 µM | 21.7 | > 61.6 | 37.3 µM | > 100 µM | > 66.1 µM | > 100 µM |
| COc1cc2c(cc1OCCCCCOc1ccc(-c3nc4ccccc4s3)cc1)N=C[C@@H]1CCCN1C2=O | 5.08 µM | 20.8 µM | 2.55 µM | 15.6 µM | 0.934 µM | 3.88 µM | 2.37 µM | > 100 µM | 2.48 µM | > 100 µM | 2.95 µM | 18.9 µM | 2.36 µM | > 62 µM | 3.02 | 10.4 | 1.21 µM | 9.77 µM | 0.799 µM | 4.11 µM |
| CC[C@@H]1C(=O)N(C)c2cnc(Nc3ccc(C(=O)NC4CCC(N5CCN(CC6CC6)CC5)CC4)cc3OC)nc2N1C(C)C (stereo partly drawn) | 0.0356 µM and 0.0566 µM | > 10 µM and 18 µM | 0.249 µM and 0.245 µM | > 10 µM and 28.9 µM | 0.0409 µM and 0.0472 µM | 0.517 µM and 0.654 µM | 0.0353 µM and 0.0406 µM | 2.51 µM and 2.44 µM | 0.00974 µM and < 0.01 µM | > 7.37 µM and 4.22 µM | 0.0917 µM and 0.173 µM | > 10 µM and 15.1 µM | 0.109 µM and 0.39 µM | > 10 µM and 10.7 µM | – | > 10 | 0.00507 µM and < 0.01 µM | 2.01 µM and 2.62 µM | 0.155 µM and 0.113 µM | > 10 µM and 21.9 µM |
| C[C@]12CC[C@H]3[C@@H](CCC4=CC(=O)CC[C@@]43C)[C@]1(O)CC[C@]2(O)C(=O)CO | – | > 100 µM | – | > 100 µM | – | > 100 µM | – | > 100 µM | – | > 100 µM | – | > 100 µM | – | > 100 µM | – | > 100 | – | > 100 µM | – | > 100 µM |
| COc1cc(-c2csc(NC(=O)Nc3ccc(Cl)cc3)n2)cc(OC)c1OC | 3.78 µM | 30.2 µM | 2.7 µM | 8.65 µM | 2.2 µM | 5.2 µM | 2.51 µM | 8.45 µM | 3.44 µM | > 49.9 µM | 3.18 µM | 13.7 µM | 2.91 µM | 11.1 µM | 3.22 | 10.7 | 2.53 µM | 10.7 µM | 1.91 µM | 6.29 µM |
| CN1CCN(c2ccc3nc(-c4[nH]ncc4Nc4ncnc5[nH]ccc45)[nH]c3c2)CC1 | 0.349 µM | 3.88 µM | 5.24 µM | > 100 µM | 0.367 µM | 2.15 µM | 0.867 µM | 3.18 µM | 0.171 µM | 22.3 µM | 0.358 µM | 5.71 µM | 0.183 µM | 1.57 µM | 0.212 | 1.01 | 0.293 µM | 11.2 µM | 0.32 µM | > 52.4 µM |

Source: PubChem BioAssay (NCI)
